From publication PMC10051798, “Thiosemicarbazide Derivatives Targeting Human TopoIIα and IDO-1 as Small-Molecule Drug Candidates for Breast Cancer Treatment” (International Journal of Molecular Sciences, 2023)
“And” between values parts separate entries of the source, which are not always exact repeats. Identical values can stand only once.

Columns and labels:
Format in all cases: cell-based, human
MDA-MB-231 cells = test: Annexin V/propidium iodide flow cytometry (apoptosis), MDA-MB-231; details: MDA-MB-231, 24 h, concentration not given
Excerpt: (§1) Flow cytometry analyses for apoptosis induction by the compounds 1–3 and etoposide wereperformedusing an FITC Annexin V Apoptosis Detection Kit II (BD Pharmingen, San Diego, CA, USA). The rationale of the assay is based on the externalization of phosphatidylserine on the surface of apoptotic cells. In early and late apoptotic cells, the phosphatidylserine translocates into the outer layer of the membrane, which allows annexin V-FITC to attach. Propidium iodide (PI) is, in turn, a fluorescent dye that penetrates into the late apoptotic and necrotic cells with impaired cell membrane integrity. Therefore, using annexin V and PI, it is possible to distinguish four groups of cells: living cells, early apoptotic cells, late apoptotic cells and necrotic cells. MCF-7 and MDA-MB-231 cells were incubated with 10 and 20 µg/mL of compounds 1–3 and etoposide (reference drug) for 24 h. After incubation, the cells were dyed with FITC-labeled annexin V and PI. The analysis was performed on a BD FACS Canto II flow cytometer using FACSDiva software (version 6.1.3, BD Biosciences Systems, San Diego, CA, USA). The equipment was calibrated with BD Cytometer Setup and Tracking Beads (BDBiosciences, San Diego, CA, USA).

MCF-10A cells = test: MTT viability assay, normal breast epithelial cells; details: for IC50: Homo sapiens, MCF-10A, MTT, 24 h; for SIMCF-7 (selectivity index): IC50 MCF-10A/IC50 MCF-7; for SIMDA-MB-231 (selectivity index): IC50 MCF-10A/IC50 MDA-MB-231
Description: Human breast cancer cells, i.e., MCF-7 (estrogen-dependent breast cancer cells) and MDA-MB-231 (estrogen-independent breast cancer cells), as well as normal human breast epithelial cells (MCF-10A) were purchased from the American Type Culture Collection (ATCC, Manassas, VA, USA). MCF-7 and MDA-MB-231 cells were cultured in DMEM (Sigma Aldrich, St. Louis, MO, USA) supplemented with 10% fetal bovine serum (FBS), penicillin (100 U/mL) and streptomycin (100 μg/mL). MCF-10A cells were cultured in Mammary Epithelial Cell Growth Medium supplemented with BPE, hEGF, insulin, hydrocortisone, GA-1000 (Lonza, Basel, Switzerland), 10% fetal bovine serum (FBS), penicillin (100 U/mL) and streptomycin (100 μg/mL). The cells were grown in T25 Cell Culture EasyFlask (Nunc, Roskilde, Denmark) at 37 °C in a humidified atmosphere of 5% CO2.
MTT assays were performed to evaluate the cytotoxic activity of the investigated compounds (1–3) against MCF-10A cells. Asuspension of cells (1 × 10^5 cells/mL) was distributed onto 96-well plates at a volume of 100 μL/well. After attachment, the cells were treated with increased concentrations of the tested compounds in medium containing 2% FBS, and incubated for 24 h. Then, 15 μL of MTT working solution (5 mg/mL in PBS) was added to each well and the plates were incubated for 3 h. Subsequently, 100 μL of 10% SDS solution was added to each well in order to dissolve the formazan formed. After overnight incubation at 37 °C, the absorbance of the obtained solution was measured at λ= 570 nm using a microplate reader (Epoch, BioTek Instruments, Inc., Winooski, VT, USA). At least two independent experiments were performed in triplicate. IC50 values of the tested compounds were calculated using the IC50 online calculator [27].

MCF-7 cells = test: Annexin V/propidium iodide flow cytometry (apoptosis), MCF-7; details: MCF-7, 24 h, concentration not given
Excerpt: as §1

SMILES	apoptotic cells (MDA-MB-231 cells) [%]	IC50 (MCF-10A cells)	SIMCF-7 (selectivity index) (MCF-10A cells)	SIMDA-MB-231 (selectivity index) (MCF-10A cells)	apoptotic cells (MCF-7 cells) [%]
O=C(Cc1cccc2ccccc12)NNC(=S)Nc1ccc(/N=N/c2ccccc2)cc1 [Compound 2]	70	42.7 µg/mL and 97.2 µM	4.65	5.60	–
O=C(NNC(=S)Nc1ccc(/N=N/c2ccccc2)cc1)c1ccccc1[N+](=O)[O-] [Compound 3]	–	40.5 µg/mL and 96.2 µM	5.30	3.86	~68
